Experimental findings from patent US10683269B2 (MISSION THERAPEUTICS LIMITED, priority 2016, dated 2020) are described below.

SMILES strings stand for the structures.

The target in the assay is T1, USP7 (Homo sapiens, UniProt Q93009).
T1 construct: The USP7 construct was PCR amplified and cloned into a pFLAG-CMV-6a vector (Sigma-Aldrich) with an N-terminal FLAG tag; made in house; host or cells: HEK293T
T1 sequence (Q93009 whole entry): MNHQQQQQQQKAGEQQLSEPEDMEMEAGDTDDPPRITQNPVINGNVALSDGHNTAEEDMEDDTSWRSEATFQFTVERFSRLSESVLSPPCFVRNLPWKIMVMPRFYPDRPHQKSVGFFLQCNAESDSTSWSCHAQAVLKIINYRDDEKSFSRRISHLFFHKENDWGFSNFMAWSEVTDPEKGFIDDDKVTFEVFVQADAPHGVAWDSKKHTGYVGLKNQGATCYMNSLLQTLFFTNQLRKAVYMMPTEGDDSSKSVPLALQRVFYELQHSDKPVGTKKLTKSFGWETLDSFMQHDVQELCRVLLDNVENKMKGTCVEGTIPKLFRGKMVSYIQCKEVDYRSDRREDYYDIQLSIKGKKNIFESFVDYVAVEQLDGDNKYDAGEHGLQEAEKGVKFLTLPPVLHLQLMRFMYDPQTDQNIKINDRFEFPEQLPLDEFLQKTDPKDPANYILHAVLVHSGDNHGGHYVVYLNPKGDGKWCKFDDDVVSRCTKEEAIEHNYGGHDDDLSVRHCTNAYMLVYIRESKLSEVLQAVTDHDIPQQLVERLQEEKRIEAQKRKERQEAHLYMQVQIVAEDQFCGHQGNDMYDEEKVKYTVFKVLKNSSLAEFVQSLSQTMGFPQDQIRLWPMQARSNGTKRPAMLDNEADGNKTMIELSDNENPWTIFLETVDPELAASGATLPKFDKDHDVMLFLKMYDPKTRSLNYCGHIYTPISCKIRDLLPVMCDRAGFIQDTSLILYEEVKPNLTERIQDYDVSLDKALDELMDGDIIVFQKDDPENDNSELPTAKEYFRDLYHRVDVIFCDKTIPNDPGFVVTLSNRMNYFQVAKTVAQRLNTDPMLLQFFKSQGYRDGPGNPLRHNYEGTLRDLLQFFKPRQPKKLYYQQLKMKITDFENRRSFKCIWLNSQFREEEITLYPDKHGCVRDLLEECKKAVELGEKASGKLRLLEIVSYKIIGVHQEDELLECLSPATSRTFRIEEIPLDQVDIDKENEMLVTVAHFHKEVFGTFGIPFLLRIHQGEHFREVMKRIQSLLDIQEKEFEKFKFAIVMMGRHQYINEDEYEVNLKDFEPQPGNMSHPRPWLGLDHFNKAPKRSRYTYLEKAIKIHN
The assay is described as follows: USP7 biochemical IC50 assay (fluorescence polarisation, TAMRA labelled peptide linked to ubiquitin via an iso-peptide bond). To be noted: 30 min pre-incubation of enzyme and compound, read after 2 hr incubation at room temperature, read-out: IC50 range. A digest of the protocol:
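Fluorescence polarisation at 540 nm excitation/590 nm emission, read immediately and after 2 hr at room temperature, following addition of 50 nM TAMRA-labelled iso-peptide ubiquitin substrate.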
Background: Polarisation of emitted light reports the rotation of a fluorescent probe.
A word on the IC50: it is the concentration at which inhibition is half-maximal. Take `CNC(=O)NCc1cc2c(c(-c3ccc(C#N)cc3C#N)c1)CN(C#N)C2` [Example 228, 1-((2-cyano-7-(2,4-dicyanophenyl)isoindolin-5-yl)methyl)-3-methylurea]: the half-inhibitory concentration (IC50) was 1000 to 10000 nM. Consider `CNC(=O)NCc1cc2c(c(-c3ccccc3C#N)c1)CN(C#N)C2` [Example 229, 1-((2-cyano-7-(2-cyanophenyl)isoindolin-5-yl)methyl)-3-methylurea], for which the IC50 lay in the range of 1000 to 10000 nM. For `N#Cc1ccc(-c2cc(CNc3ccn[nH]3)cc3c2CN(C#N)C3)cc1` [Example 230, 6-(((1H-pyrazol-5-yl)amino)methyl)-4-(4-cyanophenyl)isoindoline-2-carbonitrile], the IC50 is under 1000 nM. With `N#Cc1cc2c(c(-c3ccccc3C(N)=O)c1)CN(C#N)C2` [Example 231, 2-(2,6-dicyanoisoindolin-4-yl)benzamide] the figure was 1000 to 10000 nM; with `CN(C)C(=O)c1cc2c(c(-c3ccc(C#N)cc3)c1)CN(C#N)C2` [Example 232, 2-cyano-7-(4-cyanophenyl)-N,N-dimethylisoindoline-5-carboxamide], 1000 to 10000 nM.

On to `N#Cc1ccc(-c2cc(C(N)=O)cc3c2CN(C#N)C3)c(C#N)c1` [Example 233, 2-cyano-7-(2,4-dicyanophenyl)isoindoline-5-carboxamide], for which the 50% inhibitory concentration (IC50) lay in the range of 1000 to 10000 nM. Consider `COc1ccc(C#N)c(-c2cc(C(N)=O)cc3c2CN(C#N)C3)c1` [Example 234, 2-cyano-7-(2-cyano-5-methoxyphenyl)isoindoline-5-carboxamide], for which the IC50 lay within 1000 to 10000 nM. With `N#Cc1cc(F)ccc1-c1cc(C(N)=O)cc2c1CN(C#N)C2` [Example 235, 2-cyano-7-(2-cyano-4-fluorophenyl)isoindoline-5-carboxamide] the figure was 1000 to 10000 nM. Then `N#Cc1ccc(-c2cc(C(=O)N3CCS(=O)(=O)CC3)cc3c2CN(C#N)C3)cc1` [Example 236, 4-(4-cyanophenyl)-6-(1,1-dioxidothiomorpholine-4-carbonyl)isoindoline-2-carbonitrile], with 1000 to 10000 nM; and `CNC(=O)c1cc2c(c(-c3ccc(C#N)cc3)c1)CN(C#N)C2` [Example 237, 2-cyano-7-(4-cyanophenyl)-N-methylisoindoline-5-carboxamide], with 1000 to 10000 nM.

In the case of `N#Cc1ccc(-c2cc(C(=O)NC3CCOCC3)cc3c2CN(C#N)C3)cc1` [Example 238, 2-cyano-7-(4-cyanophenyl)-N-(tetrahydro-2H-pyran-4-yl)isoindoline-5-carboxamide], the IC50 was in the range of 1000 to 10000 nM. With `CNC(=O)c1cc2c(c(-c3ccc(C#N)cc3C#N)c1)CN(C#N)C2` [Example 239, 2-cyano-7-(2,4-dicyanophenyl)-N-methylisoindoline-5-carboxamide] the figure was 1000 to 10000 nM; with `CNC(=O)c1cc2c(c(-c3ccc(F)cc3)c1)CN(C#N)C2` [Example 240, 2-cyano-7-(4-fluorophenyl)-N-methylisoindoline-5-carboxamide], under 1000 nM; with `N#Cc1ccccc1-c1cc(C(N)=O)cc2c1CN(C#N)C2` [Example 241, 2-cyano-7-(2-cyanophenyl)isoindoline-5-carboxamide], 1000 to 10000 nM. Take `CS(=O)(=O)Nc1cc2c(c(-c3ccccc3C#N)c1)CN(C#N)C2` [Example 242, N-(2-cyano-7-(2-cyanophenyl)isoindolin-5-yl)methanesulfonamide]: the IC50 is 1000 to 10000 nM.

For the compound `CS(=O)(=O)Nc1cc2c(c(-c3ccc(C#N)cc3C#N)c1)CN(C#N)C2` [Example 243, N-(2-cyano-7-(2,4-dicyanophenyl)isoindolin-5-yl)methanesulfonamide], the concentration for half-maximal inhibition (IC50) lay in the range of 1000 to 10000 nM. Then `CS(=O)(=O)Nc1cc2c(c(-c3ccc(C#N)cc3)c1)CN(C#N)C2` [Example 244, N-(2-cyano-7-(4-cyanophenyl)isoindolin-5-yl)methanesulfonamide], with 1000 to 10000 nM; and `COc1ccc(C#N)c(-c2cc(NS(C)(=O)=O)cc3c2CN(C#N)C3)c1` [Example 245, N-(2-cyano-7-(2-cyano-5-methoxyphenyl)isoindolin-5-yl)methanesulfonamide], with 1000 to 10000 nM. With `N#CN1Cc2nc(NCC3CCOCC3)cc(-c3ccc(F)cc3)c2C1` [Example 246, 4-(4-fluorophenyl)-2-(((tetrahydro-2H-pyran-4-yl)methyl)amino)-5,7-dihydro-6H-pyrrolo[3,4-b]pyridine-6-carbonitrile] the figure was 1000 to 10000 nM. Then `N#CN1Cc2nc(NCc3ccccn3)cc(-c3ccc(F)cc3)c2C1` [Example 247, 4-(4-fluorophenyl)-2-((pyridin-2-ylmethyl)amino)-5,7-dihydro-6H-pyrrolo[3,4-b]pyridine-6-carbonitrile], with 1000 to 10000 nM; and `Cn1nccc1CNc1cc(-c2ccc(F)cc2)c2c(n1)CN(C#N)C2` [Example 248, 4-(4-fluorophenyl)-2-(((1-methyl-1H-pyrazol-5-yl)methyl)amino)-5,7-dihydro-6H-pyrrolo[3,4-b]pyridine-6-carbonitrile], with under 1000 nM. For the compound `CC(=O)Nc1cc(-c2ccc(F)cc2)c2c(n1)CN(C#N)C2` [Example 249, N-(6-cyano-4-(4-fluorophenyl)-6,7-dihydro-5H-pyrrolo[3,4-b]pyridin-2-yl)acetamide], the IC50 lay in the range of 1000 to 10000 nM. In the case of `N#CN1Cc2nc(NCC(O)CO)cc(-c3ccc(F)cc3)c2C1` (centres unmarked) [Example 250, 2-((2,3-dihydroxypropyl)amino)-4-(4-fluorophenyl)-5,7-dihydro-6H-pyrrolo[3,4-b]pyridine-6-carbonitrile], the 50% inhibitory concentration (IC50) fell in the range of 1000 to 10000 nM. With `CN(C)C(=O)Cc1cc2c(c(-c3ccccc3)c1)CN(C#N)C2` [Example 251, 2-(2-cyano-7-phenylisoindolin-5-yl)-N,N-dimethylacetamide] the figure was 1000 to 10000 nM; with `CS(=O)(=O)CCc1cc2c(c(-c3ccccc3)c1)CN(C#N)C2` [Example 252, 6-(2-(methylsulfonyl)ethyl)-4-phenylisoindoline-2-carbonitrile], 1000 to 10000 nM. For the compound `CS(=O)(=O)Cc1cc2c(c(-c3ccccc3)c1)CN(C#N)C2` [Example 253, 6-((methylsulfonyl)methyl)-4-phenylisoindoline-2-carbonitrile], the IC50 lay within 1000 to 10000 nM. Then `COCCc1cc2c(c(-c3ccc(C#N)cc3)c1)CN(C#N)C2` [Example 254, 4-(4-cyanophenyl)-6-(2-methoxyethyl)isoindoline-2-carbonitrile], with 1000 to 10000 nM; and `COCCc1cc2c(c(-c3ccccc3C(N)=O)c1)CN(C#N)C2` [Example 255, 2-(2-cyano-6-(2-methoxyethyl)isoindolin-4-yl)benzamide], with 1000 to 10000 nM; and `N#Cc1ccc(-c2cc(CCc3cccnc3)cc3c2CN(C#N)C3)cc1` [Example 256, 4-(4-cyanophenyl)-6-(2-(pyridin-3-yl)ethyl)isoindoline-2-carbonitrile], with 1000 to 10000 nM. `CC(=O)N1CCC(CCc2cc3c(c(-c4ccc(C#N)cc4)c2)CN(C#N)C3)CC1` [Example 257, 6-(2-(1-acetylpiperidin-4-yl)ethyl)-4-(4-cyanophenyl)isoindoline-2-carbonitrile]: the IC50 lay within 1000 to 10000 nM. With `N#Cc1ccc(-c2c(F)ccc3c2CN(C#N)C3)c(C(N)=O)c1` [Example 260, 5-cyano-2-(2-cyano-5-fluoroisoindolin-4-yl)benzamide] the figure was 1000 to 10000 nM; with `N#Cc1ccc(-c2ccc(F)c3c2CN(C#N)C3)c(C(N)=O)c1` [Example 261, 5-cyano-2-(2-cyano-7-fluoroisoindolin-4-yl)benzamide], 1000 to 10000 nM.
